The NIST ThermoML archive (doi:10.1021/je049743g)
Values joined by “and” are separate entries in the source; they are usually repeats but may differ in a detail not shown here. Equal values may be shown once.

Assay: wn = mass fraction of the nth substance listed
Settings: Capillary rise

FC(C(F)(F)F)C(F)(F)F [1,1,1,2,3,3,3-heptafluoropropane] + FCF
Settings	surface tension liquid-gas
293.83 K, w2 = 0.3843	6.74 mN/m
293.91 K, w2 = 0.7179	7.04 mN/m and 7.05 mN/m
295.16 K, w2 = 0.3381	6.6 mN/m
295.43 K, w2 = 0.2853	6.55 mN/m
295.48 K, w2 = 0.2853	6.53 mN/m
295.5 K, w2 = 0.7173	6.81 mN/m and 6.83 mN/m
295.61 K, w2 = 0.5282	6.53 mN/m
296.02 K, w2 = 0.3832	6.41 mN/m and 6.4 mN/m
296.82 K, w2 = 0.3372	6.36 mN/m
297.36 K, w2 = 0.3826	6.2 mN/m
297.42 K, w2 = 0.2844	6.35 mN/m and 6.32 mN/m
297.68 K, w2 = 0.5271	6.29 mN/m
297.86 K, w2 = 0.3366	6.21 mN/m
299.17 K, w2 = 0.3817	6.01 mN/m
299.22 K, w2 = 0.2835	6.13 mN/m and 6.1 mN/m
299.29 K, w2 = 0.3358	6.06 mN/m and 6.07 mN/m
299.5 K, w2 = 0.7156	6.17 mN/m
299.8 K, w2 = 0.5259	6.04 mN/m and 6.03 mN/m
301.27 K, w2 = 0.3346	5.76 mN/m
301.41 K, w2 = 0.2825	5.8 mN/m and 5.82 mN/m
301.58 K, w2 = 0.5249	5.78 mN/m and 5.77 mN/m
301.63 K, w2 = 0.7146	5.9 mN/m
301.75 K, w2 = 0.3803	5.66 mN/m and 5.69 mN/m
303.27 K, w2 = 0.3335	5.52 mN/m
303.33 K, w2 = 0.3795	5.49 mN/m and 5.54 mN/m
303.46 K, w2 = 0.2815	5.55 mN/m
303.55 K, w2 = 0.7137	5.59 mN/m
303.87 K, w2 = 0.5235	5.48 mN/m and 5.44 mN/m
305.17 K, w2 = 0.3785	5.35 mN/m and 5.33 mN/m
305.26 K, w2 = 0.3323	5.3 mN/m and 5.29 mN/m
305.28 K, w2 = 0.2805	5.35 mN/m and 5.37 mN/m
305.75 K, w2 = 0.7126	5.34 mN/m
306.29 K, w2 = 0.5221	5.16 mN/m and 5.13 mN/m
307.23 K, w2 = 0.3774	5.01 mN/m and 5.06 mN/m
307.24 K, w2 = 0.3311	5.08 mN/m
307.36 K, w2 = 0.7118	5.04 mN/m
307.39 K, w2 = 0.5214	4.94 mN/m
307.96 K, w2 = 0.2792	5.04 mN/m and 5.05 mN/m
309.18 K, w2 = 0.3299	4.8 mN/m
309.34 K, w2 = 0.2785	4.87 mN/m and 4.85 mN/m
309.43 K, w2 = 0.7107	4.7 mN/m
309.63 K, w2 = 0.3761	4.63 mN/m and 4.67 mN/m
309.81 K, w2 = 0.5198	4.64 mN/m and 4.63 mN/m
311.24 K, w2 = 0.3286	4.61 mN/m
311.26 K, w2 = 0.3752	4.45 mN/m and 4.48 mN/m
311.28 K, w2 = 0.7097	4.51 mN/m
311.62 K, w2 = 0.2773	4.59 mN/m and 4.55 mN/m
311.74 K, w2 = 0.5186	4.38 mN/m and 4.36 mN/m
313.21 K, w2 = 0.374	4.26 mN/m and 4.22 mN/m
313.22 K, w2 = 0.2764	4.42 mN/m
313.26 K, w2 = 0.7086	4.22 mN/m
313.35 K, w2 = 0.5175	4.15 mN/m and 4.17 mN/m
313.51 K, w2 = 0.3271	4.32 mN/m
315.28 K, w2 = 0.326	4.12 mN/m and 4.13 mN/m
315.3 K, w2 = 0.3728	4.06 mN/m and 4.09 mN/m
315.39 K, w2 = 0.7074	3.96 mN/m
315.43 K, w2 = 0.2752	4.14 mN/m and 4.13 mN/m
315.61 K, w2 = 0.5159	3.88 mN/m
317.24 K, w2 = 0.3247	3.88 mN/m
317.3 K, w2 = 0.7064	3.7 mN/m
317.43 K, w2 = 0.2742	3.91 mN/m and 3.89 mN/m
317.69 K, w2 = 0.5145	3.61 mN/m and 3.63 mN/m
318.29 K, w2 = 0.371	3.63 mN/m and 3.62 mN/m
319.25 K, w2 = 0.3234	3.64 mN/m
319.52 K, w2 = 0.705	3.38 mN/m
319.58 K, w2 = 0.273	3.7 mN/m and 3.67 mN/m
319.63 K, w2 = 0.3702	3.5 mN/m
320 K, w2 = 0.5129	3.33 mN/m and 3.32 mN/m
321.27 K, w2 = 0.3692	3.29 mN/m
321.3 K, w2 = 0.322	3.39 mN/m and 3.38 mN/m
321.31 K, w2 = 0.7039	3.12 mN/m
321.42 K, w2 = 0.5118	3.13 mN/m and 3.14 mN/m
321.54 K, w2 = 0.2719	3.45 mN/m and 3.42 mN/m
323.2 K, w2 = 0.3207	3.23 mN/m
323.5 K, w2 = 0.7025	2.88 mN/m and 2.87 mN/m
323.69 K, w2 = 0.2707	3.19 mN/m
323.72 K, w2 = 0.5102	2.92 mN/m
323.76 K, w2 = 0.3677	3.03 mN/m and 3.01 mN/m
325.23 K, w2 = 0.3193	3.04 mN/m
325.29 K, w2 = 0.3668	2.85 mN/m
325.3 K, w2 = 0.7013	2.63 mN/m
325.42 K, w2 = 0.2697	2.96 mN/m and 2.95 mN/m
325.89 K, w2 = 0.5085	2.57 mN/m and 2.59 mN/m
327.16 K, w2 = 0.2688	2.8 mN/m and 2.78 mN/m
327.31 K, w2 = 0.3656	2.59 mN/m and 2.58 mN/m
327.31 K, w2 = 0.7	2.43 mN/m and 2.44 mN/m
327.4 K, w2 = 0.3179	2.74 mN/m and 2.73 mN/m
327.68 K, w2 = 0.5072	2.37 mN/m and 2.38 mN/m
329.3 K, w2 = 0.3166	2.54 mN/m
329.34 K, w2 = 0.6987	2.15 mN/m and 2.16 mN/m
329.35 K, w2 = 0.5059	2.18 mN/m and 2.19 mN/m
329.37 K, w2 = 0.2676	2.6 mN/m and 2.59 mN/m
329.44 K, w2 = 0.3643	2.43 mN/m
331.47 K, w2 = 0.5043	2.01 mN/m
331.57 K, w2 = 0.315	2.24 mN/m
331.61 K, w2 = 0.6971	1.87 mN/m
331.65 K, w2 = 0.2663	2.36 mN/m and 2.37 mN/m
331.73 K, w2 = 0.3629	2.15 mN/m
333.37 K, w2 = 0.2654	2.19 mN/m
333.4 K, w2 = 0.3138	2.06 mN/m
333.48 K, w2 = 0.3618	1.95 mN/m
333.48 K, w2 = 0.6959	1.63 mN/m
333.55 K, w2 = 0.5028	1.75 mN/m and 1.72 mN/m
